Assay [1] addresses T1, Kv1.3 (Homo sapiens, UniProt P22001). The assay is described as follows: cell-based.
In assay [2] the target is T1, Kv1.3.
In assay [3] the test system is K+ channels in PC12 cells.
In assay [4] the target is Kv1.3 potassium channel (transiently transfected into HEK293 cells).
Assay [5] shares this target. The assay is described as follows: cell-based or functional assay.

Bridge positions count the residues as written; N and C are the ends. Peptide text beside a SMILES is read from it.

The source of these data is patent publication US20090291104A1 (Florida Atlantic University, priority 2005, published 2009).

T1 sequence (P22001 whole entry): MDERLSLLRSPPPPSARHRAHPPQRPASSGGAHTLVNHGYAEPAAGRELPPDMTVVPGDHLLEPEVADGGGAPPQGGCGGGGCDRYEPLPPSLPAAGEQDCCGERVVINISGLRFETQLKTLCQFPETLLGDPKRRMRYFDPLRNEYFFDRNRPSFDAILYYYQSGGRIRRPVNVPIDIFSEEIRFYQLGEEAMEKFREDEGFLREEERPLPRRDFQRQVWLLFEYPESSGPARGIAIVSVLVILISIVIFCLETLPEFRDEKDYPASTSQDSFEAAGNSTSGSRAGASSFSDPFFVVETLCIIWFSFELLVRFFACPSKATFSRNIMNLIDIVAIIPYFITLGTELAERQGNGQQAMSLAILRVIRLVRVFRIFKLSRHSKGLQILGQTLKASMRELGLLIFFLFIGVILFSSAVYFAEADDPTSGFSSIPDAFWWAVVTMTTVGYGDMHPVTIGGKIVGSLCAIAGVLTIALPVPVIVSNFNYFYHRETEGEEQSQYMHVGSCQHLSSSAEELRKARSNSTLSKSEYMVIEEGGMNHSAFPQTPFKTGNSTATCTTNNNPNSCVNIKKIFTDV

As a reminder, the Kd is the equilibrium constant for the complex coming apart. Turning to `CC[C@H](C)[C@@H]1NC(=O)[C@@H](NC(=O)[C@H](CCCNC(=N)N)NC(=O)CNC(=O)[C@H](CC(C)C)NC(=O)CNC(=O)CN)CSSC[C@@H](C(=O)N[C@@H](Cc2ccc(O)cc2)C(=O)O)NC(=O)[C@H](CCSC)NC(=O)[C@H]([C@@H](C)O)NC(=O)[C@H](CCCCN)NC(=O)[C@@H]2CSSC[C@H](NC(=O)[C@H](CC(N)=O)NC(=O)[C@H](Cc3ccc(O)cc3)NC1=O)C(=O)N[C@@H](CCSC)C(=O)N[C@@H](CC(N)=O)C(=O)N[C@@H](CO)C(=O)NCC(=O)NCC(=O)NCC(=O)N[C@@H](CC(C)C)C(=O)N[C@@H](CO)C(=O)N[C@@H](Cc1ccccc1)C(=O)N[C@@H]([C@@H](C)CC)C(=O)N[C@@H](CCC(N)=O)C(=O)N2` [vil14a] (H-GGLGRCIYNCMNSGGGLSFIQCKTMCY-OH; disulfide 6-26, 10-22), at Kv1.3 [1], the dissociation constant Kd is 15.6 µM. Besides, at Kv1.3 [2], the “V50 of steady-state activation curve (Boltzmann fit)” value is on record as “+9 mV”, the “V50 of steady-state current-voltage relationship” value is listed as 19 mV, the “V50 of steady-state current-voltage relationship after washing the toxin” value is recorded as −4.4 mV and the “reduction of Kv1.3 currents” value is recorded as “≈ 39%”. Besides, on Kv1.3 [2], the reversibility of block entry is “reversible” and the “voltage dependence of reduction in K+ current” value is reported as “voltage dependent”. Also, in assay [3], the “block of K+ channels” value was “blocks K^+ channels”.
Compound “vil14a conotoxin (framework 14 conotoxin from Conus villepinii) (peptide)” gave a dissociation constant (Kd) in assay [4] of 15.6 µM. In assay [5], this compound had a reduction of Kv1.3 K+ currents (whole-cell voltage clamp, HEK293) of 39%.
